Experimental data as given in patent EP0556789A2, “Substituted biphenyl derivatives, therapeutic agents containing them and process for their preparation” (Dr. Karl Thomae GmbH, priority 1992, dated 1993).

Each compound was assayed against T1, Angiotensin II-Rezeptor (Rattus norvegicus, UniProt P25095) (assay: Angiotensin II receptor binding ([125I]-angiotensin II displacement, rat lung homogenate)). Details: Rattenlunge homogenate, 50 pM [125I]-Angiotensin II, 60 min at 37 °C.
T1 construct: Das Gewebe (Rattenlunge) wird in Tris-Puffer; from tissue; host or cells: rat lung (membrane pellet of the homogenate)
T1 sequence (P25095 1-359): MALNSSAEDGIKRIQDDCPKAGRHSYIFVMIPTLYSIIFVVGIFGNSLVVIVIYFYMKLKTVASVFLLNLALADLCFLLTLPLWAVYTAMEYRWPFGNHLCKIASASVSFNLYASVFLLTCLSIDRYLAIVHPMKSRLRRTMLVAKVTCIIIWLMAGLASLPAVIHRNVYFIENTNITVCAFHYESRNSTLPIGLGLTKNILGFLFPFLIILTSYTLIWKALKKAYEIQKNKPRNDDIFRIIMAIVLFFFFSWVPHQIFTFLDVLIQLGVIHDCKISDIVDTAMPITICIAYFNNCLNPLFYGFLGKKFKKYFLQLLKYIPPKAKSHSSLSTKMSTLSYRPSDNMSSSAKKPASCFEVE
Set-up: species or system Ratte
Procedure: Methodenbeschreibung Angiotensin II-Rezeptorbindung
Das Gewebe (Rattenlunge) wird in Tris-Puffer (50 mMol Tris, 150 mMol NaCI, 5 mMol EDTA, pH 7.40) homogenisiert und zweimal je 20 Min. bei 20.000 x g zentrifugiert. Das endgültige Pellet wird in Inkubations-Puffer (50 mMol Tris, 5 mMol MgCI2, 0,2 % BSA, pH 7.40) 1:75, bezogen auf das Feuchtgewicht des Gewebes, resuspendiert. Je 0,1 ml Homogenat wird für 60 Min. bei 37 ° C mit 50 pM [125']-Angiotensin II (NEN, Dreieich, FRG) und steigenden Konzentrationen der Testsubstanz in einem Gesamtvolumen von 0,25 ml inkubiert. Die Inkubation wird durch rasche Filtration durch Glasfiber-Filtermatten beendet. Die Filter werden je 4 ml eiskaltem Puffer (25 mMol Tris, 2.5 mMol MgCI2, 0,1 % BSA, pH 7,40) gewaschen. Die gebundene Radioaktivität wird in einem Gamma-Counter ermittelt. Aus der Dosis-Wirkungskurve wird der entsprechende 1C50-Wert ermittelt.

| Structure (SMILES) | IC50 [nM] |
| --- | --- |
| CCCc1nc2c(C)cccc2n1Cc1ccc(-c2ccccc2)c(Cc2nnn[nH]2)c1 [Substanz A, 2-n-Propyl-4-methyl-1-[3-(tetrazol-5-yl-methyl)-4-phenyl-benzyl]-benzimidazol] | 370 |
| CCCc1nc2c(C)cc(-c3nc4ccccc4n3C)cc2n1Cc1ccc(-c2ccccc2)c(CCC(=O)O)c1 [Substanz C, 2-n-Propyl-4-methyl-6-(1-methyl-benzimidazol-2-yl)-1-[3-(2-hydroxycarbonyl-ethyl)-4-phenyl-benzyl]-benzimidazol] | 18 |
| CCc1nc2c(C)cc(C)nc2n1Cc1ccc(-c2ccccc2)c(Cc2nnn[nH]2)c1 [Substanz D, 2-Ethyl-5,7-dimethyl-3-[3-(tetrazol-5-yl-methyl)-4-phenyl-benzyl]-imidazo[4,5-b]pyridin] | 73 |
| CCCc1nc2c(C)cccc2n1Cc1ccc(-c2ccccc2)c(CCC(=O)O)c1 [Substanz B, 2-n-Propyl-4-methyl-1-[3-(2-hydroxycarbonyl-ethyl)-4-phenyl-benzyl]-benzimidazol] | 270 |
| CCCc1nc2c(C)cc(-c3cn(C(C)C)cn3)cc2n1Cc1ccc(-c2ccccc2)c(CCc2nnn[nH]2)c1 [Substanz E, 2-n-Propyl-4-methyl-6-(1-isopropyl-imidazol-4-yl)-1-[3-(2-tetrazol-5-yl-ethyl)-4-phenyl-benzyl]-benzimidazol] | 6.9 |
